{
  "source": "patent US8415342B2",
  "about": "“Besifloxacin ophthalmic composition for the treatment or control of infection” (Bausch & Lomb Incorporated, priority 2008, dated 2013)",
  "key": {"[1]": {"assay": "Systemic exposure after topical ocular administration to humans", "conditions": "human, in vivo, topical or ocular; following topical administration to humans", "text": "Topical ophthalmic use of besifloxacin is not expected to elicit any systemic effects."}, "[2]": {"assay": "Study 424: tear fluid pharmacokinetics after single topical ocular instillation in healthy volunteers", "format": "in vivo, human", "method": "This study was conducted to evaluate the ocular PK of besifloxacin in tear fluid after a single instillation of besifloxacin ophthalmic suspension, 0.6%, in both eyes of healthy volunteers and to compare the actual besifloxacin exposure to MICs of the most prevalent pathogens associated with bacterial conjunctivitis.\nHealthy volunteers received a single instillation (37 μL by pipette) of besifloxacin ophthalmic suspension, 0.6%, in the conjunctival sac of each eye. A single tear sample was collected on a Schirmer tear strip from each healthy volunteer. […] Samples were analyzed using a validated LC/MS/MS method, and the LLOQ was 2 ng/mL (equivalent to approximately 0.2 μg/g for a 10-mg tear sample).\nMean tear concentration data were obtained from the per protocol (PP) set and the full analysis (FAS) set. For the purpose of this study, the PP set included all healthy volunteers with the exclusion of apparent outlier values. The FAS set included all healthy volunteers who received besifloxacin, and from whom all sampling data were available (no exclusion of outlier values)."}, "[3]": {"assay": "Binding to proteins in human plasma", "format": "in vitro ADME", "text": "The relationship between the concentration of besifloxacin in human tear fluid and the concentration required for antimicrobial activity was quantified by calculating the ratios of Cmax/MIC90 and AUC24/MIC90. For the purpose of calculating these PK/PD ratios, a PK model was used to simulate besifloxacin concentrations with a TID dosing regimen. An additional consideration in this analysis is the potential role of protein binding, which could effectively lower the concentration of unbound (free) besifloxacin. The inhibitory effect of protein binding on antibacterial efficacy has been reported for β-lactams; however, there is no general consensus about the role of protein binding on the antibacterial activity of fluoroquinolones (Bergogne-Berezin, 2002; Craig & Ebert, 1989; Drusano, 1988; Merrikin et al., 1983; Turnidge, 1999; Zeitlinger et al., 2008). […] In order to evaluate the potential theoretical maximum impact of protein binding on besifloxacin activity, Cmax/MIC90 and AUC24/MIC90 ratios were calculated based on the PK estimates for total (bound and free) and free (unbound) besifloxacin (Table 10)."}, "[4]": {"conditions": "both sexes, human, tear fluid, topical, 37 μL of 0.6% suspension per eye, tears, single instillation 0.6% suspension, healthy volunteers, FAS"}, "[5]": {"conditions": "both sexes, human, tear fluid, topical, 37 μL of 0.6% suspension per eye, tears, single instillation 0.6% suspension, healthy volunteers, PP"}, "[6]": {"conditions": "tears, single instillation 0.6% suspension, healthy volunteers, FAS"}},
  "note": "Read-outs that look alike come from different tables or passages of the source.",
  "data": [
    {"smiles": "N[C@@H]1CCCCN(c2c(F)cc3c(=O)c(C(=O)O)cn(C4CC4)c3c2Cl)C1", "note": "[Besifloxacin, (R)-(+)-(3-amino-2,3,4,5,6,7-hexahydro-1H-azepin-1-yl)-8-chloro-1-cyclopropyl-6-fluoro-1,4,-dihydro-4-oxo-3-quinolinecarboxylic acid]", "values": [
      {"measurement": "Cmax", "setting": "[1]", "result": "~0.4", "unit": "ng/mL"},
      {"measurement": "concentration at 24 h", "setting": "[2]; both sexes, human, tear fluid, topical, 37 μL of 0.6% suspension per eye, 0.6% suspension, human tears, read-out: mean concentration in tears at 24 hours (C24h)", "result": "1600 ± 2280", "unit": "ng/g"},
      {"measurement": "concentration at 24 h", "setting": "[2]; both sexes, human, tear fluid, topical, 37 μL of 0.6% suspension per eye, after a single dose of 0.6% suspension, humans, read-out: concentration in tears sustained for at least 24 hours", "result": "≥ 1600", "unit": "ng/g"},
      {"measurement": "Cmax", "setting": "[2]; [4]", "result": "610000 ± 540000", "unit": "ng/g"},
      {"measurement": "Tmax", "setting": "[2]; [4]", "result": 0.17, "unit": "h"},
      {"measurement": "half-life", "setting": "[2]; [4]", "result": 3.4, "unit": "h"},
      {"measurement": "Cmax", "setting": "[2]; [5]", "result": 811000, "unit": "ng/g"},
      {"measurement": "half-life", "setting": "[2]; [5]", "result": 3.51, "unit": "h"},
      {"measurement": "time of mean maximum concentration in tears after instillation", "setting": "[2]; single instillation, healthy volunteers", "result": "≤ 10", "unit": "min"},
      {"measurement": "AUC24", "setting": "[2]; [6]", "result": 1232, "unit": "µg·h/g"},
      {"measurement": "t1/2", "setting": "[2]; [6]", "result": 3.43, "unit": "h"},
      {"measurement": "AUC24", "setting": "[2]; tears, single instillation 0.6% suspension, healthy volunteers, PP", "result": 1523, "unit": "µg·h/g"},
      {"measurement": "bound to proteins in human plasma", "setting": "[3]", "result": "approximately 40%"}
    ]}
  ]
}
